{
  "source": "paper PMC9545474",
  "about": "“Anticancer Water‐Soluble Organoruthenium Complexes: Synthesis and Preclinical Evaluation” (Chembiochem, 2022)",
  "key": {"[1]": {"tested_on": "non-immortalised lymphocytes", "parameters": "method as in PMID 33119178", "details": "cited from earlier work"}, "[2]": {"tested_on": "A2780 ovarian cancer cells", "parameters": "method as in PMID 32237195", "details": "read-out: IC50 values ±SD, A2780; cited from earlier work"}, "[3]": {"tested_on": "ovarian, colon, and lung cancer cell lines", "parameters": "method as in PMID 32237195", "details": "some ovarian; cited from earlier work"}, "[4]": {"tested_on": "H460 non-small-cell lung cancer cells", "parameters": "method as in PMID 32237195", "details": "read-out: IC50 values ±SD, H460; cited from earlier work"}, "[5]": {"tested_on": "A2780cisR cisplatin-resistant ovarian cancer cells", "parameters": "method as in PMID 32237195", "details": "read-out: IC50 values ±SD, A2780cisR; cited from earlier work"}, "[6]": {"tested_on": "H460 non-small-cell lung cancer cells", "assay": "24-hour MTT chemosensitivity assay with 72-hour recovery, H460", "assay_type": "cell-based", "details": "for IC50: 24 h exposure, 72 h recovery, MTT, read-out: IC50 values ±SD, H460", "protocol": "(§1) Chemosensitivity studies were undertaken using a 24‐hour MTT assay, with a 72‐hour recovery period. The IC50 values were determined against ovarian A2780 (cisplatin‐sensitive) and A2780cisR (cisplatin‐resistant) cancer cell lines, non‐small‐cell lung H460 cancer cell line, and normal prostate PNT2 cell line, exposed to each of compounds 4–8, cisplatin or the phosphine ligands (Table 1 and S4, Figures S29–S31). […] This is unusual but can be related to solubility issues not visible for the naked eye and thus hindering its activity in cells. […] When tested on their own, the phosphine ligands are not active below 100 μM for all four cell lines. […] This therefore prevents comparison with the well‐known RAPTA family, and more especially with RAPTA−C which bears a PTA ligand and a p‐cym ligand, making this complex relatively similar in terms of geometry with complex 4.[21] […] This confirms the interest of the sulfur coordinating atom in terms of cytotoxicity for organoruthenium complexes.[23]\n(§2) Chemosensitivity assay: In vitro chemosensitivity tests were performed against A2780, A2780cisR, PNT2 and H460 cells. Cells were routinely maintained as monolayer cultures in RPMI 1640 medium supplemented with 10 % foetal calf serum, penicillin (100 I.U./mL) and streptomycin (100 μg/mL), sodium pyruvate (1 mM) and L‐glutamine (2 mM). For chemosensitivity studies, cells were seeded in 96‐well plates at a concentration of 7.5×10^3 cells per well and the plates were incubated for 24 h at 37 °C and a 5 % CO2 humidified atmosphere prior to drug exposure.\n(§3) Complexes were dissolved in either DMSO (complexes 4, 5, and 8) or PBS (complexes 6 and 7) to provide stock solutions which were further diluted with media to provide a range of final concentrations. Drug‐media solutions were added to cells (the final concentration of DMSO was less than 1 % (v/v) in all cases) and incubated for 24 h at 37 °C and a 5 % CO2 humidified atmosphere. The drug‐media solution was removed from the wells and the cells were washed with PBS (100 μL, twice) and 200 μL of complete fresh media were added to each well. The plates were further incubated for 72 h at 37 °C and a 5 % CO2 humidified atmosphere to allow for a period of recovery. 3‐(4,5‐dimethylthiazol‐2‐yl)‐2,5‐diphenyltetrazolium bromide (MTT) (40 μL, 2.5 mg/mL) was added to each well and plates were incubated for 2 h. All solutions were then removed and 100 μL of DMSO was added to each well in order to dissolve the purple formazan crystals. A Thermo Scientific Multiskan EX microplate photometer was used to measure the absorbance in each well at 570 nm. Cell survival was determined as the absorbance of treated cells divided by the absorbance of controls and expressed as a percentage. The IC50 values were determined from plots of % survival against drug concentration. Each experiment was repeated in triplicates of triplicates and a mean value was obtained and stated as IC50 (μM) ± SD. Untreated cells were used as a negative control, and cells treated with cisplatin were used as a positive control."}, "[7]": {"tested_on": "A2780cisR cisplatin-resistant ovarian cancer cells", "assay": "24-hour MTT chemosensitivity assay with 72-hour recovery, A2780cisR", "assay_type": "cell-based, human", "details": "for IC50: 24 h exposure, 72 h recovery, MTT, read-out: IC50 values ±SD, A2780cisR", "protocol": "as §1, §2, §3"}, "[8]": {"tested_on": "A2780 ovarian cancer cells", "assay": "24-hour MTT chemosensitivity assay with 72-hour recovery, A2780", "assay_type": "cell-based, human", "details": "for IC50: 24 h exposure, 72 h recovery, MTT, read-out: IC50 values ±SD, A2780", "protocol": "as §1, §2, §3"}, "[9]": {"tested_on": "PNT2 non-cancerous human prostate cells", "assay": "24-hour MTT chemosensitivity assay with 72-hour recovery, PNT2", "assay_type": "cell-based", "details": "24 h exposure, 72 h recovery, MTT; read-out: IC50 values ±SD, PNT2", "protocol": "as §1, §2, §3"}, "[10]": {"assay": "Precipitation in drug-medium solutions", "assay_type": "physicochemical"}, "[11]": {"tested_on": "A2780 cells", "assay": "JC-10 mitochondrial membrane potential assay by flow cytometry", "assay_type": "cell-based, human", "details": "A2780, 24 h, complexes at IC50, cisplatin 6.5 µM", "excerpt": "A membrane potential sensitive fluorescent probe JC‐10 was used to determine whether the apoptosis induced by complexes 6 and 8 is accompanied by changes in the mitochondrial membrane potential (ΔΨm) of A2780 cells. JC‐10 aggregates inside mitochondria and emits orange fluorescence. Following membrane […], JC‐10 is disaggregated and this in turn reduces the orange fluorescence.\nFigure 8 Effect of complexes 6 and 8 on the mitochondrial membrane potential. […] The percentages of cells with depolarised mitochondrial membrane potential were assessed by flow cytometry after staining with JC‐10. The data are expressed as the means±SD of the three individual experiments.\nMitochondrial membrane potential assay: Analysis of the changes of mitochondrial potential in A2780 cells after exposure to complexes 6 and 8 was carried out using the JC‐10 mitochondrial membrane potential assay kit (abcam®) according to the manufacturer's instructions. Briefly, 1.0×10^6 cells per well were seeded in a 6‐well plate and incubated for 24 at 37 °C and a 5 % CO2 humidified atmosphere. […] Supernatants were removed by suction, and each well was washed with PBS before detaching the cells using trypsin. Staining of the samples was done in tubes protected from light, incubating for 30 min in the dark at room temperature. Samples were immediately analysed on a BD Accuri C6 Plus System Flow Cytometer, reading the reduction of fluorescence in the FL2 channel."}, "[12]": {"tested_on": "MCF-7 cell line", "parameters": "method as in PMID 27357845", "details": "read-out: EC50 against MCF-7 cell line; cited from earlier work"}},
  "note": "Where two headings read alike, the source gives them in different places.",
  "data": [
    {"smiles": "Cc1ccc(C(C)C)cc1.N#CC1=C(C#N)[S][Ru][S]1", "note": "[Complex 3, [(η^6‐p‐cymene)Ru(Mnt)]]", "values": [
      {"measurement": "Toxicity against non-immortalised lymphocytes from healthy individuals", "setting": "[1]", "value": "absence of toxicity"},
      {"measurement": "IC50", "setting": "[2]", "value": "0.5 ± 0.04", "unit": "µM"},
      {"measurement": "Potency relative to cisplatin", "setting": "[3]", "value": "5 to 60", "unit": "×"},
      {"measurement": "IC50", "setting": "[4]", "value": "0.8 ± 0.1", "unit": "µM"},
      {"measurement": "IC50", "setting": "[5]", "value": "0.32 ± 0.15", "unit": "µM"}
    ]},
    {"smiles": "Cc1ccc(C(C)C)cc1.N#CC1=C(C#N)[S][Ru-]([P+]23CN4CN(CN(C4)C2)C3)[S]1", "note": "[Complex 4, (η^6‐p‐cymene)(PTA)Ru(Mnt)]", "values": [
      {"measurement": "IC50", "setting": "[6]", "value": "≥ 50", "unit": "µM"},
      {"measurement": "IC50", "setting": "[7]", "value": "≥ 50", "unit": "µM"},
      {"measurement": "IC50", "setting": "[8]", "value": "≥ 50", "unit": "µM"},
      {"measurement": "IC50", "setting": "[9]", "value": "≥ 50", "unit": "µM"},
      {"measurement": "Concentration above which the complex precipitates", "setting": "[10]", "value": "higher than 50 μM"}
    ]},
    {"smiles": "N.N.[Cl][Pt][Cl]", "note": "[Cisplatin, reference compound]", "values": [
      {"measurement": "IC50", "setting": "[6]", "value": "4.5 ± 0.2", "unit": "µM"},
      {"measurement": "Selectivity index (SI), H460", "setting": "[6]; mean IC50 PNT2 / mean IC50 H460", "value": 2.67},
      {"measurement": "IC50", "setting": "[7]", "value": "18 ± 0.6", "unit": "µM"},
      {"measurement": "Selectivity factor (cross-resistance, resistance factor RF)", "setting": "[7]; IC50 A2780cisR / IC50 A2780", "value": 2.8},
      {"measurement": "Selectivity index (SI), A2780cisR", "setting": "[7]; mean IC50 PNT2 / mean IC50 A2780cisR", "value": 0.67},
      {"measurement": "IC50", "setting": "[8]", "value": "6.5 ± 0.4", "unit": "µM"},
      {"measurement": "Selectivity index (SI), A2780", "setting": "[8]; mean IC50 PNT2 / mean IC50 A2780", "value": 1.85},
      {"measurement": "% cell population with high orange fluorescence", "setting": "[11]; Experiment 1", "value": 88.9, "unit": "%"},
      {"measurement": "% cell population with low orange fluorescence", "setting": "[11]; Experiment 1", "value": 11.1, "unit": "%"},
      {"measurement": "% cell population with high orange fluorescence", "setting": "[11]; Experiment 2", "value": 87, "unit": "%"},
      {"measurement": "% cell population with low orange fluorescence", "setting": "[11]; Experiment 2", "value": 13.0, "unit": "%"},
      {"measurement": "% cell population with high orange fluorescence", "setting": "[11]; Experiment 3", "value": 82.1, "unit": "%"},
      {"measurement": "% cell population with low orange fluorescence", "setting": "[11]; Experiment 3", "value": 17.9, "unit": "%"},
      {"measurement": "% cell population with high orange fluorescence", "setting": "[11]; Summary, mean values ± SD", "value": "86 ± 3.5", "unit": "%"},
      {"measurement": "IC50", "setting": "[9]", "value": "12 ± 0.7", "unit": "µM"}
    ]},
    {"smiles": "Cc1ccc(C(C)C)cc1.[Cl][Ru-]1[O][n+]2ccccc2[S]1", "note": "[[(η^6‐p‐cymene)Ru(pyrithionato)Cl]]", "values": [
      {"measurement": "EC50", "setting": "[12]", "value": "3.81 ± 0.06", "unit": "µM"}
    ]}
  ]
}
